Experimental data taken from US20150291565A1, “INDOLE COMPOUNDS AND THEIR USE AS ANTIMICROBIALS” (Memorial Sloan-Kettering Cancer Center, priority 2012, published 2015).
In brackets after ≈: the same amount, converted by molar mass. Like-named read-outs stand apart in the source and are kept apart here.

How the values were obtained:
[1] = system: K. pneumoniae ATCC 13883; assay: Broth dilution MIC, K. pneumoniae ATCC 13883; type: cell-based; conditions: Klebsiella pneumoniae
[2] = system: M. smegmatis (mc2155); assay: Disk diffusion assay, zone of inhibition, M. smegmatis; type: cell-based; conditions: disk diffusion zone of inhibition
[3] = system: E. coli ECM 1694; assay: Broth dilution MIC, E. coli ECM 1694; type: cell-based; conditions: Escherichia coli
[4] = system: E. faecalis ATCC 29212 (VRE); assay: Broth dilution MIC, E. faecalis ATCC 29212; type: cell-based
[5] = system: S. aureus ATCC 29213 (MSSA); assay: Broth dilution MIC, S. aureus ATCC 29213; type: cell-based; conditions: Staphylococcus aureus
[6] = system: S. pneumoniae ATCC 6301 (PSSP); assay: Broth dilution MIC, S. pneumoniae ATCC 6301; type: cell-based; conditions: Streptococcus pneumoniae
[7] = system: E. coli ATCC 25922; assay: Broth dilution MIC, E. coli ATCC 25922; type: cell-based; conditions: Escherichia coli
[8] = system: E. faecium CT-26; assay: Broth dilution MIC, E. faecium CT-26; type: cell-based; conditions: Enterococcus faecium
[9] = system: S. aureus BAA-39 (MDR); assay: Broth dilution MIC, S. aureus BAA-39; type: cell-based; conditions: Staphylococcus aureus, BAA39
[10] = system: S. pneumoniae ATCC 700674 (PRSP); assay: Broth dilution MIC, S. pneumoniae ATCC 700674; type: cell-based; conditions: Streptococcus pneumoniae
[11] = system: P. aeruginosa ATCC 9027; assay: Broth dilution MIC, P. aeruginosa ATCC 9027; type: cell-based; conditions: Pseudomonas aeruginosa
[12] = system: S. aureus ATCC 33591 (MRSA); assay: Broth dilution MIC, S. aureus ATCC 33591; type: cell-based; conditions: Staphylococcus aureus
[13] = system: C. albicans ATCC 14053; assay: Broth dilution MIC, C. albicans ATCC 14053; type: cell-based; conditions: Candida albicans, ATCC14053; Table 1; range 64 down to 0.12 μg/ml
Method: In vitro Anti-bacterial & Anti-fungal Activity Assay: All test compounds were prepared as 6.4 mg/ml stock solutions in DMSO and further diluted according to the NCCLS M7-A6 (Page 5) document with sterile water or appropriate diluent. A working stock of 256 μg/ml was used to do 1:2 serial dilutions in 96-well plates. […] The inoculums were prepared by making a direct sterile water suspension of isolated colonies from 18 to 24 hr agar plates for all organisms (Mueller Hinton, Blood Agar or SDA plates). Each bacterial suspension was adjusted to read between 0.09 and 0.11 absorbance at 620 nm. […] These were further diluted 1/100 in appropriate broth for inoculating the 96-well plates. The C. albicans suspension was adjusted to read between 70 and 75% Transmittance at 530 nm and then diluted 1/500 in RPMI+MOPS broth. All aerobic bacterial and fungal plates were incubated for 18 hrs. at 35° C. […] Plates were read using a Beckman Automated Plate Reader at 650 nm. Readings were confirmed by visual examination of plates. (See Table 1, Table 2, Table 3, and Table 4). […] It is important to note that positive results against C. albicans are often indicative of broad spectrum antifungal activity, while negative results are not necessarily conclusory of a lack of activity against other fungus.

[14] = system: MRSA; assay: Disk diffusion assay, zone of inhibition, MRSA; type: cell-based, Staphylococcus aureus; conditions: disk diffusion zone of inhibition
[15] = system: E. faecium ATCC 700221 (VRE); assay: Broth dilution MIC, E. faecium ATCC 700221; type: cell-based
[16] = system: K. pneumoniae ATCC 51503; assay: Broth dilution MIC, K. pneumoniae ATCC 51503; type: cell-based; conditions: Klebsiella pneumoniae

For `c1cc(-c2cc3ccc(C4=NCCN4)cc3[nH]2)ccc1Nc1ccc(N2CCOCC2)cc1` [SKI-11], which MIC ([1]; ATCC13883, Table 1, range 64 down to 0.12 μg/ml, read-out: MIC K. pneumoniae ATCC 13883) is on record?
Its MIC is greater than 64 µg/mL.

What about the MIC ([1]; ATCC13883, Table 2, broth dilution MIC in ug/ml, read-out: MIC K pneumonia ATCC 13883) of the same compound?
Its MIC is 64 µg/mL (≈ 146 µM).

And the “Zone Size M. smegmatis” value [2]?
Its value is 11 mm.

What about the MIC ([3]; ECM1694, Table 1, range 64 down to 0.12 μg/ml, read-out: MIC E. coli ECM 1694) of the same compound?
Its MIC is 1 µg/mL (≈ 2.29 µM).

And the MIC ([3]; ECM1694, Table 2, broth dilution MIC in ug/ml, read-out: MIC E. coli ECM 1693)?
Its MIC is 1 µg/mL (≈ 2.29 µM).

And the MIC ([4]; Enterococcus faecalis, Table 1, range 64 down to 0.12 μg/ml, read-out: MIC E. faecalis ATCC 29212)?
The MIC was 4 µg/mL (≈ 9.14 µM).

And the MIC ([4]; Table 2, broth dilution MIC in ug/ml, read-out: MIC E faecalis ATCC 29212 VRE)?
The MIC was 4 µg/mL (≈ 9.14 µM).

And the MIC ([5]; Table 1, range 64 down to 0.12 μg/ml, read-out: MIC S. aureus ATCC 29213)?
Its MIC is 8 µg/mL (≈ 18.3 µM).

What about the MIC ([5]; Table 2, broth dilution MIC in ug/ml, read-out: MIC S aureus ATCC 29213 MSSA) of the same compound?
The MIC was 8 µg/mL (≈ 18.3 µM).

And the MIC ([6]; ATCC6301, Table 1, range 64 down to 0.12 μg/ml, read-out: MIC S. pneumoniae ATCC 6301)?
The MIC was 4 µg/mL (≈ 9.14 µM).

And the MIC ([6]; ATCC6301, Table 2, broth dilution MIC in ug/ml, read-out: MIC S pneumonia ATCC 6301 PSSP)?
Its MIC is 4 µg/mL (≈ 9.14 µM).

And the MIC ([7]; ATCC 25921 / ATCC 25922, Table 2, broth dilution MIC in ug/ml, read-out: MIC E. coli ATCC 25921)?
The MIC was 16 µg/mL (≈ 36.6 µM).

And the MIC ([7]; ATCC25922, Table 1, range 64 down to 0.12 μg/ml, read-out: MIC E. coli ATCC 25922)?
The MIC was 16 µg/mL (≈ 36.6 µM).

What about the MIC ([8]; CT26, Table 1, range 64 down to 0.12 μg/ml, read-out: MIC E. faecium CT-26) of the same compound?
The MIC was 1 µg/mL (≈ 2.29 µM).

What about the MIC ([8]; CT26, Table 2, broth dilution MIC in ug/ml, read-out: MIC E faecium CT-25) of the same compound?
Its MIC is 1 µg/mL (≈ 2.29 µM).

What about the MIC ([9]; Table 1, range 64 down to 0.12 μg/ml, read-out: MIC S. aureus BAA-39) of the same compound?
Its MIC is 4 µg/mL (≈ 9.14 µM).

And the MIC ([9]; Table 2, broth dilution MIC in ug/ml, read-out: MIC S aureus BAA-39 MDR)?
The MIC was 4 µg/mL (≈ 9.14 µM).

What about the MIC ([10]; Table 1, range 64 down to 0.12 μg/ml, read-out: MIC S. pneumoniae ATCC 700674) of the same compound?
Its MIC is 16 µg/mL (≈ 36.6 µM).

And the MIC ([10]; Table 2, broth dilution MIC in ug/ml, read-out: MIC S pneumonia ATCC 700674 PRSP)?
Its MIC is 16 µg/mL (≈ 36.6 µM).

And the MIC ([11]; ATCC 9026 / ATCC 9027, Table 2, broth dilution MIC in ug/ml, read-out: MIC P aeruginosa ATCC 9026)?
Its MIC is 64 µg/mL (≈ 146 µM).

And the MIC ([11]; ATCC9027, Table 1, range 64 down to 0.12 μg/ml, read-out: MIC P. aeruginosa ATCC 9027)?
Its MIC is greater than 64 µg/mL.

And the MIC ([12]; Table 1, range 64 down to 0.12 μg/ml, read-out: MIC S. aureus ATCC 33591)?
The MIC was 4 µg/mL (≈ 9.14 µM).

And the MIC ([12]; Table 2, broth dilution MIC in ug/ml, read-out: MIC S aureus ATCC 33591 MRSA)?
The MIC was 4 µg/mL (≈ 9.14 µM).

And the MIC [13]?
The MIC was 32 µg/mL (≈ 73.1 µM).

What about the “Zone Size MRSA” value [14] of the same compound?
Its value is 11 mm.

What about the MIC ([15]; Enterococcus faecium, Table 1, range 64 down to 0.12 μg/ml, read-out: MIC E. faecium ATCC 700221) of the same compound?
Its MIC is 1 µg/mL (≈ 2.29 µM).

What about the MIC ([15]; Table 2, broth dilution MIC in ug/ml, read-out: MIC E faecium ATCC 700221 VRE) of the same compound?
The MIC was 1 µg/mL (≈ 2.29 µM).

What about the MIC ([16]; ATCC51503, Table 1, range 64 down to 0.12 μg/ml, read-out: MIC K. pneumoniae ATCC 51503) of the same compound?
The MIC was greater than 64 µg/mL.

And the MIC ([16]; ATCC51503, Table 2, broth dilution MIC in ug/ml, read-out: MIC K pneumonia ATCC 51503)?
The MIC was 64 µg/mL (≈ 146 µM).
